The assay deals with T1, Pseudomonas aeruginosa PAO1.
T1 construct: PAO1
Kind of assay: microbe, parasite or virus in culture. Details: broth microdilution MIC in cation-adjusted Mueller-Hinton broth, visual growth or resazurin. The note with it: PAO1, 20 h, read-out: MIC PAO1. As for the experimental part:
Analysis of antimicrobial susceptibilities. […] The BMD method was performed on cation adjusted MH broth (CAMHB) as recommended 41, 42 . Bacteria were first grown overnight in CAMHB using CLSI-recommended incubation conditions and the antibiotics were serially diluted twofold across the 96 well plates. After that, 100 µl of a bacterial suspension diluted to 5x10^5 CFU/ml in CAMHB was added to the wells containing the antibiotic dilutions. The 96-well plates were incubated for 20 h at 37°C before developing by visual inspection or with the resazurin dye 43 . MIC was defined as the lowest concentration of the antibiotic (in μg/ml) that prevented visual growth. As the LESB58 isolate is considered a slower growing strain compared to laboratory strain PAO1 44, incubation for bacterial growth was extended to 48 h instead of 24 h for some protocols. […] For Etest a 0.5 McFarland suspension was used to create a confluent lawn of microbial growth in 150-mm Mueller-Hinton (MH) agar plates. The MIC values were determined according to the Etest reading guide after 18 h incubation at 37°C. MICs were determined as the concentration at which the zone of inhibition intersected the Etest strip.

≈ marks a conversion by molar mass, not a printed value. Where only a bound is given, the exact number is not on record here.

As for `NCC[C@H](O)C(=O)N[C@@H]1C[C@H](N)[C@@H](O[C@H]2O[C@H](CN)[C@@H](O)[C@H](O)[C@H]2O)[C@H](O)[C@H]1O[C@H]1O[C@H](CO)[C@@H](O)[C@H](N)[C@H]1O` [Amikacin], the MIC stood at 2 µg/mL (≈ 3.42 µM).
With `CC(C)(O/N=C(\C(=O)N[C@@H]1C(=O)N2C(C(=O)[O-])=C(C[n+]3ccccc3)CS[C@H]12)c1csc(N)n1)C(=O)O` [Ceftazidime], the MIC was determined as 1 µg/mL (≈ 1.83 µM).
Consider `O=C(N[C@H](CO)[C@H](O)c1ccc([N+](=O)[O-])cc1)C(Cl)Cl` [Chloramphenicol], for which the MIC is > 256 µg/mL.
For the compound `C[C@@H](O)[C@H]1C(=O)N2C(C(=O)O)=C(SCCNC=N)C[C@H]12` [Imipenem], the MIC came out at 4 µg/mL (≈ 13.4 µM).
`C[C@H]1COc2c(N3CCN(C)CC3)c(F)cc3c(=O)c(C(=O)O)cn1c23` [Levofloxacin]: the MIC came out at 4 µg/mL (≈ 11.1 µM).
As for `C[C@@H](O)[C@H]1C(=O)N2C(C(=O)O)=C(S[C@@H]3CN[C@H](C(=O)N(C)C)C3)[C@H](C)[C@H]12` [Meropenem], the MIC came to 1 µg/mL (≈ 2.61 µM).
Regarding `CN(C)c1ccc(O)c2c1C[C@H]1C[C@H]3[C@H](N(C)C)C(O)=C(C(N)=O)C(=O)[C@@]3(O)C(O)=C1C2=O` [Minocycline], the MIC turned out to be 32 µg/mL (≈ 69.9 µM).
Turning to `CCn1cc(C(=O)O)c(=O)c2cc(F)c(N3CCNCC3)cc21` [Norfloxacin], the MIC came out at 4 µg/mL (≈ 12.5 µM).
Then `CC1COc2c(N3CCN(C)CC3)c(F)cc3c(=O)c(C(=O)O)cn1c23` (stereo not shown) [Ofloxacin], with 8 µg/mL (≈ 22.1 µM); and `CCN1CCN(C(=O)N[C@@H](C(=O)N[C@@H]2C(=O)N3[C@@H]2SC(C)(C)[C@@H]3C(=O)O)c2ccccc2)C(=O)C1=O` [Piperacillin], with 2 µg/mL (≈ 3.86 µM); and `CN[C@@H]1[C@H](O[C@H]2[C@H](O[C@H]3[C@H](O)[C@@H](O)[C@H](N=C(N)N)[C@@H](O)[C@@H]3N=C(N)N)O[C@@H](C)[C@]2(O)C=O)O[C@@H](CO)[C@H](O)[C@H]1O` [Streptomycin], with 8 µg/mL (≈ 13.8 µM).
For the compound `CC1(C)S[C@@H]2[C@H](NC(=O)[C@H](C(=O)O)c3ccsc3)C(=O)N2[C@H]1C(=O)O` [Ticarcillin], the MIC was 16 µg/mL (≈ 41.6 µM).
For `CN(C)c1cc(NC(=O)CNC(C)(C)C)c(O)c2c1C[C@H]1C[C@H]3[C@H](N(C)C)C(O)=C(C(N)=O)C(=O)[C@@]3(O)C(O)=C1C2=O` [Tigecycline], the MIC amounted to 32 µg/mL (≈ 54.6 µM).

These data come from publication PMC8035174, “The Pseudomonas aeruginosa substrate-binding protein Ttg2D functions as a general glycerophospholipid transporter across the periplasm” (Communications Biology, 2021).
